These results are taken from patent publication US9902696B2, “1,4-substituted piperidine derivatives” (Cephalon, Inc., priority 2015, dated 2018).

Where a name gives a salt, the structure may show the parent alone.

For `O=C(C1CCCC1)N1CCC(Oc2ccc(-c3cnc4ccccc4c3)cc2)CC1` (as salt: HCl) [Example 102, Cyclopentyl-[4-(4-quinolin-3-yl-phenoxy)-piperidin-1-yl]-methanone, 2HCl], the melting point fell in the range of 145 to 147 °C.

`CC(C)C(=O)N1CCC(Oc2ncc(-c3cnc4ccccc4c3)cn2)CC1` (as salt: HCl) [Example 138, 2-Methyl-1-[4-(5-quinolin-3-yl-pyrimidin-2-yloxy)-piperidin-1-yl]-propan-1-one, 2HCl] returned a melting point of 124 to 130 °C.

Take `O=C(C1CC1)N1CCC(Oc2ncc(-c3cnc4ccccc4c3)cn2)CC1` (as salt: HCl) [Example 139, Cyclopropyl-[4-(5-quinolin-3-yl-pyrimidin-2-yloxy)-piperidin-1-yl]-methanone, 2HCl]: the melting point fell in the range of 150 to 153 °C.

Compound `CCC(=O)N1CCC(Oc2ccc(-c3cnc4ccccc4c3)nc2)CC1` (as salt: HCl) [Example 140, 1-[4-(6-Quinolin-3-yl-pyridin-3-yloxy)-piperidin-1-yl]-propan-1-one, 2HCl] registered a melting point of 207 to 212 °C.

Turning to `CC(C)C(=O)N1CCC(Oc2ccc(-c3cnc4ccccc4c3)nc2)CC1` (as salt: HCl) [Example 141, 2-Methyl-1-[4-(6-quinolin-3-yl-pyridin-3-yloxy)-piperidin-1-yl]-propan-1-one, 2HCl], the melting point was 99 to 102 °C.

In the case of `O=C(C1CC1)N1CCC(Oc2ccc(-c3cnc4ccccc4c3)nc2)CC1` (as salt: HCl) [Example 142, Cyclopropyl-[4-(6-quinolin-3-yl-pyridin-3-yloxy)-piperidin-1-yl]-methanone, 2HCl], the melting point was 230 to 234 °C.

Turning to `CCC(=O)N1CCC(Oc2ccc(-c3ccc4cccnc4c3)nc2)CC1` (as salt: HCl) [Example 144, 1-[4-(6-Quinolin-7-yl-pyridin-3-yloxy)-piperidin-1-yl]-propan-1-one, 2HCl], the melting point lay in the range of 90 to 96 °C.

`CC(C)C(=O)N1CCC(Oc2ccc(-c3ccc4cccnc4c3)nc2)CC1` (as salt: HCl) [Example 145, 2-Methyl-1-[4-(6-quinolin-7-yl-pyridin-3-yloxy)-piperidin-1-yl]-propan-1-one, 2HCl] registered a melting point of 170 to 179 °C.

`O=C(C1CC1)N1CCC(Oc2ccc(-c3ccc4cccnc4c3)nc2)CC1` (as salt: HCl) [Example 146, Cyclopropyl-[4-(6-quinolin-7-yl-pyridin-3-yloxy)-piperidin-1-yl]-methanone, 2HCl]: the melting point is 170 to 175 °C.

Consider `CCC(=O)N1CCC(Oc2ccc(-c3ccc4cnccc4c3)nc2)CC1` (as salt: HCl) [Example 147, 1-[4-(6-Isoquinolin-6-yl-pyridin-3-yloxy)-piperidin-1-yl]-propan-1-one, 2HCl], for which the melting point is 236 to 245 °C.

`CC(C)C(=O)N1CCC(Oc2ccc(-c3ccc4cnccc4c3)nc2)CC1` (as salt: HCl) [Example 148, 1-[4-(6-Isoquinolin-6-yl-pyridin-3-yloxy)-piperidin-1-yl]-2-methyl-propan-1-one, 2HCl] had a melting point of 236 to 241 °C.

Regarding `O=C(C1CC1)N1CCC(Oc2ccc(-c3ccc4cnccc4c3)nc2)CC1` (as salt: HCl) [Example 149, Cyclopropyl-[4-(6-isoquinolin-6-yl-pyridin-3-yloxy)-piperidin-1-yl]-methanone, 2HCl], the melting point was 136 to 146 °C.

Compound `CCC(=O)N1CC[C@H](Oc2ccc(-c3cnc4ccccc4c3)cc2)C1` (as salt: HCl) [Example 343, (S)-1-(3-(4-(Quinolin-3-yl)phenoxy)pyrrolidin-1-yl)propan-1-one, HCl] displayed a melting point of 60 °C.

In turn, `CCC(=O)N1CC[C@@H](Oc2ccc(-c3ccc4cccnc4c3)cc2)C1` (as salt: HCl) [Example 344, (R)-1-(3-(4-(Quinolin-7-yl)phenoxy)pyrrolidin-1-yl)propan-1-one, HCl] yielded a melting point of 53 °C.
